In publication PMC11053488, “Influence of Aza-Glycine Substitution on the Internalization of Penetratin” (Pharmaceutics, 2024):

Experiments:
A-431 cells [1] = experiment: Cellular uptake after pretreatment with endocytosis inhibitors or ATP depletion, flow cytometry; details: then peptide 5 µM 90 min; for Cellular uptake with NaN3 and DOG, % of the untreated control: NaN3 500 µM and 2-deoxyglucose 250 mM pretreatment 30 min (ATP depletion), mean
Procedure: The cells were incubated for 24 h at 37 °C. The cells were treated with a serum-free medium as a negative control and with peptide solutions in 5 µM concentration in a serum-free medium for 90 min. After the incubation, the cells were washed, and 100 µL of trypsin was applied for 10 min to eliminate peptides adhered to the membrane and to detach the cells from the plates. Trypsin activity was stopped by adding 800 µL of HPMI buffer (glucose, NaHCO3, NaCl, HEPES, KCl, MgCl2, CaCl2, Na2HPO4·2H2O) containing 10% fetal bovine serum. Cells were then transferred from the plates to FACS tubes. Centrifugation of the cells took place at 216× g at 4 °C for 5 min, and the supernatant was removed. Resuspension of the cells was performed by 250 µL HPMI, followed by fluorescence intensity measurements using a flow cytometer (BDLSR II, BD Bioscience, San Jose, CA, USA). The analysis of the data was performed using FACSDiVa 5.0 software. To study the effect of inhibitors, cells were pretreated with the solution of inhibitors for 30 min, followed by the treatment with the peptide solution at 5 µM for 90 min. Inhibition of macropinocytosis was performed by using 5-(N-Ethyl-N-isopropyl)amiloride (EIPA) (500 µM) [46], of clathrin-mediated endocytosis by using chlorpromazine (CPZ) (300 µM) [47]. The caveolae/lipid raft-mediated endocytosis was prevented with methyl-β-cyclodextrin (mBCD) (36 mM) [48], and colchicine (Col) (200 mM) was employed to determine the role of microtubules and consequently, the significance of pinocytosis [49]. To inhibit all endocytosis routes, sodium azide (NaN3) (500 µM) and 2-Deoxyglucose (DOG) (250 mM) was used.
The following endocytic inhibitors were used: EIPA (5-(N-ethyl-N-isopropyl) amiloride) as an inhibitor of macropinocytosis, chlorpromazine (CPZ) as an inhibitor of a clathrin-mediated endocytosis, and the cholesterol-depleting reagent methyl-beta-cyclodextrin (mBCD) was used to inhibit the caveolae-mediated endocytosis. Finally, colchicine (COL) was applied to inhibit microtubule formation.
A-431 cells were pretreated with the EIPA (500 µM), CPZ (300 µM), mBCD (36 mM), COL (200 mM), NaN3 (500 µM), and DOG (250 mM) for 30 min, followed by treatment with peptides (5 µM) for 90 min. Any significant difference from the control was determined by Student’s t-test (* p < 0.05). Data represent the mean ± standard deviation (SD).The asterisks show a significant difference between the control Pen(desMet) and its derivatives (* p < 0.05, ** p < 0.01, *** p < 0.001).
In addition, the A-431 cells were pretreated with sodium azide (NaN3) and 2-deoxyglucose (DOG) to study the energy-independent pathways. This pretreatment results in ATP depletion and therefore the inhibition of energy-dependent pathways (Figure 3).

A-431 cells [2] = experiment: Cellular uptake of Cf-labelled peptides by flow cytometry; format: cell-based; details: 5 µM, 90 min, 37 °C, compared with Pen(desMet)
Procedure: The cells were treated with a solution of peptides at 5 µM concentration at 37 °C for 90 min. The measured fluorescence values were corrected with the autofluorescence of the untreated cells. To determine the toxicity of the conjugates, the live/dead cell ratio was calculated.
Figure 2 Comparison of the cellular uptake of the labelled penetratin derivatives into A-431 cells. Cells were incubated with 5 µM peptide solution for 90 min at 37 °C. The fluorescence intensity of the cells was determined by flow cytometry. The fluorescence intensity is relative to Pen(desMet) at 5 µM (100%). Data represent the mean ± standard deviation (SD). Any significant difference to the control was measured using the Student’s t test.

Row | Substance | Cellular uptake with NaN3 and DOG, % of the untreated control (A-431 cells [1]) | Cellular uptake (in words) (A-431 cells [2]) | Effect of azide/DOG treatment on cellular uptake (in words) (A-431 cells [1]; NaN3 500 µM and DOG 250 mM pretreatment 30 min)
1 | Cf-RQIKIWFQNRRKWKK-NH2 [Pen(desMet)] | 79% |  | 
2 | Cf-RQIKI-azaGly-FQNRRKWKK-NH2 [Trp48aGlyPen(desMet), Cf-labelled Pen(desMet) with Trp48 replaced by aza-glycine] |  | dramatically decreased the cellular uptake | 
3 | Cf-RQIKIWFQNRRKGKK-NH2 [Trp56GlyPen(desMet)] | 50% |  | 
4 | Cf-RQIKIWFQNRRK-azaGly-KK-NH2 [Trp56aGlyPen(desMet)] | 97% |  | did not have any effect
5 | Cf-RQIKIGFQNRRKWKK-NH2 [Trp48GlyPen(desMet), Cf-labelled Pen(desMet) with Trp48 replaced by glycine] |  | dramatically decreased the cellular uptake | 
